Assay results from patent US8404643B2, “Metastin derivatives and use thereof” (priority 2005, dated 2013).
Square brackets hold non-standard residues; d marks the D form. Peptide text beside a SMILES is read from it. * marks the point of attachment. Phe(4-Cl) = N[C@@H](Cc1ccc(Cl)cc1)C(=O)O; Phe(3-F) = N[C@@H](Cc1cccc(F)c1)C(=O)O; Phe(2-Me) = Cc1ccccc1C[C@H](N)C(=O)O; Arg(Me) = CNC(=N)NCCC[C@H](N)C(=O)O; Hyp = O=C(O)[C@@H]1C[C@@H](O)CN1; αMeF = C[C@](N)(Cc1ccccc1)C(=O)O; Pip = O=C(O)[C@@H]1CCCCN1; Dap = NC[C@H](N)C(=O)O; Glycolyl = O=C(CO)*; NHPentyl = CCCCCN*; azaGly = NNC(=O)O

Molecular target: T1, hOT7T175 (Homo sapiens, UniProt Q969F8)
T1 construct: expressed in transfected cells
T1 sequence (Q969F8 whole entry L364H): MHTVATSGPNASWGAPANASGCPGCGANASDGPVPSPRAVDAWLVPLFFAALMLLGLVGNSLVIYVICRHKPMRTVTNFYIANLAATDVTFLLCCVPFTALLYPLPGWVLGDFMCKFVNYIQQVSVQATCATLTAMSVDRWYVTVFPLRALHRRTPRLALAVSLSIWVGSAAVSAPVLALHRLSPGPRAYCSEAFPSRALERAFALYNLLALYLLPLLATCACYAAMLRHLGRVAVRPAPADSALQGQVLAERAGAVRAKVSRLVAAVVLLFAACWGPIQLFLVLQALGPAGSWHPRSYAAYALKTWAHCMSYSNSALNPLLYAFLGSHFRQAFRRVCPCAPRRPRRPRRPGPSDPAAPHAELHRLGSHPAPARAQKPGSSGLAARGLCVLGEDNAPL
Experiment: Assay for intracellular Ca ion level-increasing activity using FLIPR
Type: cell-based
Settings: hOT7T175/CHO cells, relative to Metastin (1-54)
Procedure: In accordance with the method described in JPA 2000-312590, the intracellular Ca ion level-increasing activity was measured using FLIPR.
The stable expression cell line hOT7T175 was obtained by transfection of the expression plasmid pAK-rOT175 for animal cells into CHO/dhfr^− cells, using CellPhect Transfection Kit (Amersham Pharmacia Biotech, Inc.). First, 240 μL of Buffer A (attached to CellPhect Transfection Kit) was added to 9.6 μg of plasmid DNA dissolved in 240 μL of distilled water followed by stirring. After the mixture was settled for 10 minutes, 480 μL of Buffer B (attached to CellPhect Transfection Kit) was added to the mixture, which was vigorously stirred to form liposomes containing the DNA. Then, 4×10^5 CHO/dhfr^− cells (obtained from ATCC) were inoculated on a 60 mm Petri dish. After culturing the cells in Ham's F-12 medium (Nissui Seiyaku Co., Ltd.) supplemented with 10% fetal bovine serum (BIO WHITTAKER, Inc.) at 37° C. for 2 days in 5% carbon dioxide gas, […] of the liposomes were dropwise added to the cells on the Petri dish. After culturing the cells at 37° C. for 6 hours in 5% carbon dioxide gas, the cells were washed twice with serum-free Ham's F-12 medium and 3 mL of 15% glycerol was added to the cells on the Petri dish followed by treatment for 2 minutes. The cells were again washed twice with serum-free Ham's F-12 medium followed by incubation in Ham's F-12 medium supplemented with 10% fetal bovine serum at 37° C. for 15 hours in 5% carbon dioxide gas. The cells were dispersed by trypsin treatment to recover from the Petri dish. The recovered cells were inoculated on a 6-well plate in 1.25×10^4 cells/well and incubation was initiated at 37° C. in Dulbecco's modified Eagle medium (DMEM) medium (Nissui Seiyaku Co., Ltd.) containing 10% dialyzed fetal bovine serum (JRH BIOSCIENCES, Inc.) in 5% carbon dioxide gas. The plasmid-transfected CHO transformants grew in the medium but the non-transfected cells gradually died, accordingly the medium was exchanged on Days 1 and 2 after the initiation of incubation to remove the cells died. Approximately 20 colonies of the CHO transformants that kept growing on Days 8 to 10 after the incubation were isolated. From the cells in these colonies, cells showing high reactivity with the ligand peptide metastin (hereinafter merely referred to as hOT7T175/CHO) were selected to provide for the following experiment.
The intracellular Ca ion level-increasing activity of the synthetic peptide in hOT7T175/CHO was determined using FLIPR (Molecular Devices, Inc.).
hOT7T175/CHO was subcultured in DMEM supplemented with 10% dialyzed fetal bovine serum (hereinafter abbreviated as dFBS) (hereinafter referred to as 10% dFBS/DMEM) and provided for the experiment. The hOT7T175/CHO was suspended in 10% dFBS-DMEM in 15×10^4 cells/ml. The suspension was inoculated on a 96-well plate for FLIPR (Black Plate Clear Bottom, Coster, Inc.) at 200 μl/well (3.0×10^4 cells/200 μL/well), followed by incubation at 37° C. overnight in a 5% CO2 incubator (hereinafter referred to as the cell plate). Then, 21 ml of HANKS/HBSS (9.8 g of HANKS, 0.35 g of sodium hydrogencarbonate, 20 ml of 1M HEPES; after adjusting the pH to 7.4 with 1N sodium hydroxide, the mixture was sterilized by filtration), 210 μl of 250 mM Probenecid and 210 μl of fetal bovine serum (FBS) (HANKS/HBSS-Probenecid-FBS) were mixed.
Furthermore, 2 vials of Fluo3-AM (50 μg/vial) were dissolved in 21 μL of dimethylsulfoxide and 21 μL of 20% Pluronic acid. The resulting solution was added to and mixed with 10 ml of the HANKS/HBSS-Probenecid-FBS described above. After the culture medium was removed, the mixture was dispensed onto the cell plate in 100 μl each/well, followed by incubation at 37° C. for an hour in a 5% CO2 incubator (pigment loading). The peptide was dissolved in dimethylsulfoxide in 1×10^−3 M. The peptide solution was diluted with HANKS/HBSS containing 2.5 mM Probenecid, 0.2% BSA and 0.1% CHAPS. […]

SMILES | Specific Activity: intracellular Ca ion level-increasing activity [specific activity to Metastin (1-54)]
CNC(=N)NCCC[C@H](NC(=O)[C@H](CC(C)C)NC(=O)NNC(=O)[C@H](Cc1ccccc1)NC(=O)[C@@H](NC(=O)[C@H](CC(N)=O)NC(=O)[C@@H](CO)NC(=O)[C@@H](Cc1ccc(O)cc1)NC(C)=O)[C@@H](C)O)C(=O)N[C@@H](Cc1c[nH]c2ccccc12)C(N)=O [Compound No. 737, Ac-D-Tyr-D-Ser-Asn-Thr-Phe-AzaGly-Leu-Arg(Me)-Trp-NH2] (Ac-[dY][dS]NTF[azaGly]L[Arg(Me)]W-NH2) | 3.0
CNC(=N)NCCC[C@H](NC(=O)[C@H](CC(C)C)NC(=O)NNC(=O)[C@H](Cc1cccc(F)c1)NC(=O)[C@@H](NC(=O)[C@H](CC(N)=O)NC(=O)[C@H](Cc1c[nH]c2ccccc12)NC(=O)[C@@H](Cc1ccc(O)cc1)NC(C)=O)[C@@H](C)O)C(=O)N[C@@H](Cc1c[nH]c2ccccc12)C(N)=O [Compound No. 766, Ac-D-Tyr-Trp-Asn-Thr-Phe(3F)-AzaGly-Leu-Arg(Me)-Trp-NH2] (Ac-[dY]WNT[Phe(3-F)][azaGly]L[Arg(Me)]W-NH2) | 0.2
CCCCCNC(=O)C[C@H](NC(=O)[C@@H](Cc1c[nH]c2ccccc12)NC(=O)[C@@H](Cc1ccc(O)cc1)NC(C)=O)C(=O)N[C@H](C(=O)N[C@@H](Cc1ccccc1)C(=O)NNC(=O)N[C@@H](CC(C)C)C(=O)N[C@@H](CCCNC(=N)NC)C(=O)N[C@@H](Cc1c[nH]c2ccccc12)C(N)=O)[C@@H](C)O [Compound No. 714, Ac-D-Tyr-D-Trp-Asp(NHPen)-Thr-Phe-AzaGly-Leu-Arg(Me)-Trp-NH2] (Ac-[dY][dW]D(NHPentyl)TF[azaGly]L[Arg(Me)]W-NH2) | 0.7
CNC(=N)NCCC[C@H](NC(=O)[C@H](CC(C)C)NC(=O)NNC(=O)[C@H](Cc1ccc(Cl)cc1)NC(=O)[C@@H](NC(=O)[C@H](CC(N)=O)NC(=O)[C@H](Cc1c[nH]c2ccccc12)NC(=O)[C@@H](Cc1ccc(O)cc1)NC(C)=O)[C@@H](C)O)C(=O)N[C@@H](Cc1c[nH]c2ccccc12)C(N)=O [Compound No. 768, Ac-D-Tyr-Trp-Asn-Thr-Phe(4Cl)-AzaGly-Leu-Arg(Me)-Trp-NH2] (Ac-[dY]WNT[Phe(4-Cl)][azaGly]L[Arg(Me)]W-NH2) | 0.6
CNC(=N)NCCC[C@H](NC(=O)[C@H](CC(C)C)NC(=O)NNC(=O)[C@H](Cc1ccccc1)NC(=O)[C@@H](NC(=O)[C@H](CC(N)=O)NC(=O)[C@@H]1CCCCN1C(=O)[C@@H](Cc1ccc(O)cc1)NC(C)=O)[C@@H](C)O)C(=O)N[C@@H](Cc1c[nH]c2ccccc12)C(N)=O [Compound No. 721, Ac-D-Tyr-Pic(2)-Asn-Thr-Phe-AzaGly-Leu-Arg(Me)-Trp-NH2] (Ac-[dY][Pip]NTF[azaGly]L[Arg(Me)]W-NH2) | 1.1
CNC(=N)NCCC[C@H](NC(=O)[C@H](CC(C)C)NC(=O)NNC(=O)[C@H](Cc1cccc(F)c1)NC(=O)[C@@H](NC(=O)[C@H](CC(N)=O)NC(=O)[C@H](CCCCN)NC(=O)[C@@H](Cc1ccc(O)cc1)NC(C)=O)[C@@H](C)O)C(=O)N[C@@H](Cc1c[nH]c2ccccc12)C(N)=O [Compound No. 756, Ac-D-Tyr-Lys-Asn-Thr-Phe(3F)-AzaGly-Leu-Arg(Me)-Trp-NH2] (Ac-[dY]KNT[Phe(3-F)][azaGly]L[Arg(Me)]W-NH2) | 2.4
CNC(=N)NCCC[C@H](NC(=O)[C@H](CC(C)C)NC(=O)NNC(=O)[C@H](Cc1ccccc1)NC(=O)[C@@H](NC(=O)[C@H](CC(N)=O)NC(=O)[C@@H]1C[C@@H](O)CN1C(=O)[C@@H](Cc1ccc(O)cc1)NC(=O)CO)[C@@H](C)O)C(=O)N[C@@H](Cc1c[nH]c2ccccc12)C(N)=O [Compound No. 776, Glycoloyl-D-Tyr-Hyp-Asn-Thr-Phe-AzaGly-Leu-Arg(Me)-Trp-NH2] (Glycolyl-[dY][Hyp]NTF[azaGly]L[Arg(Me)]W-NH2) | 1.5
CNC(=N)NCCC[C@H](NC(=O)[C@H](CC(C)C)NC(=O)NNC(=O)[C@H](Cc1ccccc1)NC(=O)[C@@H](NC(=O)[C@H](CC(N)=O)NC(=O)[C@H](C)NC(=O)[C@@H](Cc1ccc(O)cc1)NC(C)=O)[C@@H](C)O)C(=O)N[C@@H](Cc1c[nH]c2ccccc12)C(N)=O [Compound No. 742, Ac-D-Tyr-Ala-Asn-Thr-Phe-AzaGly-Leu-Arg(Me)-Trp-NH2] (Ac-[dY]ANTF[azaGly]L[Arg(Me)]W-NH2) | 2.3

Continued, values first:

Specific Activity: intracellular Ca ion level-increasing activity [specific activity to Metastin (1-54)] | SMILES
0.7 | CNC(=N)NCCC[C@H](NC(=O)[C@H](CC(C)C)NC(=O)NNC(=O)[C@H](Cc1ccccc1)NC(=O)[C@@H](NC(=O)CNC(=O)[C@@H]1C[C@@H](O)CN1C(=O)[C@@H](Cc1ccc(O)cc1)NC(C)=O)[C@@H](C)O)C(=O)N[C@@H](Cc1c[nH]c2ccccc12)C(N)=O [Compound No. 862, Ac-D-Tyr-Hyp-Gly-Thr-Phe-AzaGly-Leu-Arg(Me)-Trp-NH2] (Ac-[dY][Hyp]GTF[azaGly]L[Arg(Me)]W-NH2)
1.4 | CNC(=N)NCCC[C@H](NC(=O)[C@H](CC(C)C)NC(=O)NNC(=O)[C@](C)(Cc1ccccc1)NC(=O)[C@@H](NC(=O)[C@H](CC(N)=O)NC(=O)[C@@H]1C[C@@H](O)CN1C(=O)[C@@H](Cc1ccc(O)cc1)NC(C)=O)[C@@H](C)O)C(=O)N[C@@H](Cc1c[nH]c2ccccc12)C(N)=O [Compound No. 868, Ac-D-Tyr-Hyp-Asn-Thr-αMePhe-AzaGly-Leu-Arg(Me)-Trp-NH2] (Ac-[dY][Hyp]NT[αMeF][azaGly]L[Arg(Me)]W-NH2)
0.5 | CNC(=N)NCCC[C@H](NC(=O)[C@H](CC(C)C)NC(=O)NNC(=O)[C@H](Cc1ccccc1)NC(=O)[C@H](C)NC(=O)[C@H](CC(N)=O)NC(=O)[C@@H]1C[C@@H](O)CN1C(=O)[C@@H](Cc1ccc(O)cc1)NC(C)=O)C(=O)N[C@@H](Cc1c[nH]c2ccccc12)C(N)=O [Compound No. 814, Ac-D-Tyr-Hyp-Asn-Ala-Phe-AzaGly-Leu-Arg(Me)-Trp-NH2] (Ac-[dY][Hyp]NAF[azaGly]L[Arg(Me)]W-NH2)
0.6 | CNC(=N)NCCC[C@H](NC(=O)[C@H](CC(C)C)NC(=O)NNC(=O)[C@H](Cc1ccccc1C)NC(=O)[C@@H](NC(=O)[C@H](CC(N)=O)NC(=O)[C@@H]1C[C@@H](O)CN1C(=O)[C@@H](Cc1ccc(O)cc1)NC(C)=O)[C@@H](C)O)C(=O)N[C@@H](Cc1c[nH]c2ccccc12)C(N)=O [Compound No. 870, Ac-D-Tyr-Hyp-Asn-Thr-Phe(2Me)-AzaGly-Leu-Arg(Me)-Trp-NH2] (Ac-[dY][Hyp]NT[Phe(2-Me)][azaGly]L[Arg(Me)]W-NH2)
0.9 | CNC(=N)NCCC[C@H](NC(=O)[C@H](CC(C)C)NC(=O)NNC(=O)[C@H](Cc1ccccc1)NC(=O)[C@@H](NC(=O)[C@H](CN)NC(=O)[C@@H]1C[C@@H](O)CN1C(=O)[C@@H](Cc1ccc(O)cc1)NC(C)=O)[C@@H](C)O)C(=O)N[C@@H](Cc1c[nH]c2ccccc12)C(N)=O [Compound No. 863, Ac-D-Tyr-Hyp-Dap-Thr-Phe-AzaGly-Leu-Arg(Me)-Trp-NH2] (Ac-[dY][Hyp][Dap]TF[azaGly]L[Arg(Me)]W-NH2)
